Tested on: A498 complex spheroids with HUVEC/MSC, growth
Assay: Anticancer human tumor A498 cell line growth inhibition [AhR];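 further: seven day exposure starting three days after spheroid seeding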;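 on viability, T/C: luminescence signal used as a surrogate for viable cells; luminescence viability scaled so 100% equals DMSO vehicle wells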
Conditions: for IC50: curve of first compound; for viability, T/C: stronger effect = lower value
How it was run: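 Spheroids combined tumor cells with HUVEC endothelial cells and human MSCs as stroma. AhR antagonists were paired with standard or investigational drugs, each dosed in half-log steps down from near clinical Cmax, or from 10 microM where Cmax was unknown.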

[1] = second compound 0.1 µM, first compound 0.0316 µM
[2] = second compound 0.1 µM, first compound 0.1 µM
[3] = second compound 0.1 µM, first compound 0.316 µM
[4] = second compound 0.1 µM, first compound 1 µM
[5] = second compound 0.1 µM, first compound 3.16 µM
[6] = second compound 0.1 µM, first compound 10 µM
[7] = second compound 0.316 µM, first compound 0.0316 µM
[8] = second compound 0.316 µM, first compound 0.1 µM
[9] = second compound 0.316 µM, first compound 0.316 µM
[10] = second compound 0.316 µM, first compound 1 µM
[11] = second compound 0.316 µM, first compound 3.16 µM
[12] = second compound 0.316 µM, first compound 10 µM
[13] = second compound 1 µM, first compound 0.0316 µM
[14] = second compound 1 µM, first compound 0.1 µM
[15] = second compound 1 µM, first compound 0.316 µM
[16] = second compound 1 µM, first compound 1 µM
[17] = second compound 1 µM, first compound 3.16 µM
[18] = second compound 1 µM, first compound 10 µM
[19] = second compound 3.16 µM, first compound 0.0316 µM
[20] = second compound 3.16 µM, first compound 0.1 µM
[21] = second compound 3.16 µM, first compound 0.316 µM
[22] = second compound 3.16 µM, first compound 1 µM
[23] = second compound 3.16 µM, first compound 3.16 µM
[24] = second compound 3.16 µM, first compound 10 µM
[25] = second compound 10 µM, first compound 0.0316 µM
[26] = second compound 10 µM, first compound 0.1 µM
[27] = second compound 10 µM, first compound 0.316 µM
[28] = second compound 10 µM, first compound 1 µM
[29] = second compound 10 µM, first compound 3.16 µM
[30] = second compound 10 µM, first compound 10 µM

NS(=O)(=O)OCC1CC(n2ccc3c(NC4CCc5ccccc54)ncnc32)CC1O (stereo not given) + CC(CO)NC(=O)c1cc(-c2ccc(Cl)cc2)nn(-c2cnn(C)c2)c1=O
IC50 (second compound 0.1 µM): 0.268 µM
IC50 (second compound 0.316 µM): 0.263 µM
IC50 (second compound 1 µM): 0.31 µM
IC50 (second compound 3.16 µM): 0.245 µM
IC50 (second compound 10 µM): 0.196 µM
viability, T/C [1]: 94.8%
viability, T/C [2]: 86%
viability, T/C [3]: 42.4%
viability, T/C [4]: 30%
viability, T/C [5]: 22.4%
viability, T/C [6]: 17.7%
viability, T/C [7]: 90.9%
viability, T/C [8]: 81.8%
viability, T/C [9]: 42.9%
viability, T/C [10]: 27.2%
viability, T/C [11]: 23.3%
viability, T/C [12]: 17.6%
viability, T/C [13]: 92%
viability, T/C [14]: 82.4%
viability, T/C [15]: 47.5%
viability, T/C [16]: 30.8%
viability, T/C [17]: 23.4%
viability, T/C [18]: 19.8%
viability, T/C [19]: 92.5%
viability, T/C [20]: 73.6%
viability, T/C [21]: 41.5%
viability, T/C [22]: 29.3%
viability, T/C [23]: 20.6%
viability, T/C [24]: 18.3%
viability, T/C [25]: 79%
viability, T/C [26]: 64.1%
viability, T/C [27]: 39.5%
viability, T/C [28]: 26%
viability, T/C [29]: 20.9%
viability, T/C [30]: 17.6%

O=C(C=Cc1cccc(S(=O)(=O)Nc2ccccc2)c1)NO + CC(CO)NC(=O)c1cc(-c2ccc(Cl)cc2)nn(-c2cnn(C)c2)c1=O
IC50 (second compound 0.1 µM): 0.812 µM
IC50 (second compound 0.316 µM): 0.719 µM
IC50 (second compound 1 µM): 0.704 µM
IC50 (second compound 3.16 µM): 0.612 µM
IC50 (second compound 10 µM): 0.298 µM
viability, T/C [1]: 82.8%
viability, T/C [2]: 79.2%
viability, T/C [3]: 63.6%
viability, T/C [4]: 42.5%
viability, T/C [5]: 32.6%
viability, T/C [6]: 9.53%
viability, T/C [7]: 80.2%
viability, T/C [8]: 74.3%
viability, T/C [9]: 64.5%
viability, T/C [10]: 39.4%
viability, T/C [11]: 31.9%
viability, T/C [12]: 9.41%
viability, T/C [13]: 80.5%
viability, T/C [14]: 80.8%
viability, T/C [15]: 61%
viability, T/C [16]: 42.2%
viability, T/C [17]: 28.1%
viability, T/C [18]: 9.7%
viability, T/C [19]: 73.1%
viability, T/C [20]: 72.8%
viability, T/C [21]: 58.6%
viability, T/C [22]: 39.6%
viability, T/C [23]: 28.8%
viability, T/C [24]: 6.66%
viability, T/C [25]: 67%
viability, T/C [26]: 56.6%
viability, T/C [27]: 53.8%
viability, T/C [28]: 33.7%
viability, T/C [29]: 25.6%
viability, T/C [30]: 6.56%

Source: PubChem BioAssay AID1919007 (Molecular Pharmacology Branch, DTP, NCI, 2023)
